The record followed here is patent US7998965B2, “Glutamate aggrecanase inhibitors” (Wyeth LLC, priority 2005, dated 2011).

Like-named read-outs stand apart in the source and are kept apart here.

As a reminder, the IC50 is the concentration at which inhibition is half-maximal. For orientation: Ki means a dissociation constant, usually derived from enzyme kinetics or from competition with a known ligand.

Test [1] concerns the target T1, purified recombinant human Aggrecanase-2 (Ag2t-Phe628-Strep) (Homo sapiens, UniProt Q9UNA0).
T1 construct: the form used is denoted as Ag2t-Phe628-Strep (MW=41,737)
T1 sequence (Q9UNA0 262-628): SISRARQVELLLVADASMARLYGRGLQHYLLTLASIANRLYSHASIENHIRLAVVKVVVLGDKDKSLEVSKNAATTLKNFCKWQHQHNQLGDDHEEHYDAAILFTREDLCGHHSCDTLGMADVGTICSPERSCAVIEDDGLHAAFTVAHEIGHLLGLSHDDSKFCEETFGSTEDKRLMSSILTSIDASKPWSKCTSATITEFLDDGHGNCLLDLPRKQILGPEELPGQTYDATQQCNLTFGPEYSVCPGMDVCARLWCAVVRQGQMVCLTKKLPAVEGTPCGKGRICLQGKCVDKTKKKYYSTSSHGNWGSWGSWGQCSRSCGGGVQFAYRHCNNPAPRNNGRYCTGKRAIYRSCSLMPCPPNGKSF
Nature of the test: In vitro fluorescence screen for Aggrecanase-2 inhibitors. Format: biochemical. The following applies: for IC50: read-out: Agg 2 IC50; for Ki: read-out: Ki Agg2.

Test [2] has as its target T2, purified recombinant human Aggrecanase-1 (rAgg1) (Homo sapiens, UniProt O75173).
T2 sequence (O75173 213-837): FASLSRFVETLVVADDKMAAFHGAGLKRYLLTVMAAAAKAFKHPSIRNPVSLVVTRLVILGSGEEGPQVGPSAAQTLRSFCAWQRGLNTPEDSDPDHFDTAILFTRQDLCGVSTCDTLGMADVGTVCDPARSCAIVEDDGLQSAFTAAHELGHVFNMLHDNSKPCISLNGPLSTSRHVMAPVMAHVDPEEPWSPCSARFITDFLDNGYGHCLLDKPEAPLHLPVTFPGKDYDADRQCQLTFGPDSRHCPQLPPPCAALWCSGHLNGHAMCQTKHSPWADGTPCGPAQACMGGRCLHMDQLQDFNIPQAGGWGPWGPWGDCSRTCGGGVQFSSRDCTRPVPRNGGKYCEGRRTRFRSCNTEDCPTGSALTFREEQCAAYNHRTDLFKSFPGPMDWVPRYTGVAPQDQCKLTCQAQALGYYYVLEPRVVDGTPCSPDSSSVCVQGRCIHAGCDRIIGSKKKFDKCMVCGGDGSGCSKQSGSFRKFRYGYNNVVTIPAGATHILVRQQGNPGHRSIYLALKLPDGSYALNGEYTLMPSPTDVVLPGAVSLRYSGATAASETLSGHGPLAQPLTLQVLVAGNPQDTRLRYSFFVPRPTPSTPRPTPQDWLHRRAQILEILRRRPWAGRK
The test can be described thus: In vitro fluorescence screen for Aggrecanase-1 inhibitors. Set-up: Agg1 % at concentration: scale not given here. The test is classed as biochemical. To be noted: for IC50: read-out: Agg1 IC50; for Ki: read-out: Ki Agg1.

`CC(C)(NC(=O)[C@H](CCC(=O)O)NC(=O)c1ccc2c(c1)C(=O)c1ccccc1-2)c1ccccc1` [Example 8MMMMM, N^1-(1-methyl-1-phenylethyl)-N^2-[(9-oxo-9H-fluoren-2-yl)carbonyl]-L-α-glutamine]: the IC50 in test [1] (Table 2) was approximately 22000 nM; in test [2] (Table 2), 20000 nM.

`Cc1cccc(CNC(=O)[C@H](CCC(=O)O)NC(=O)c2ccc(-c3cccc(CBr)c3)cc2)c1` [Example 8TTTTTTT, N^2-{[3′-(bromomethyl)biphenyl-4-yl]carbonyl}-N-(3-methylbenzyl)-L-α-glutamine]: the inhibition at 11 µM in test [1] (Table 3, at 11000 (nM), read-out: Agg 2 % at concentration) was 20%. The IC50 in test [2] (Table 3) worked out at 707 nM.

Take `O=C(O)CC[C@H](NC(=O)c1cccc2c1Cc1ccccc1-2)C(=O)NCCCCCCO` [Example 8WWWWW, N^2-(9H-fluoren-1-ylcarbonyl)-N^1-(6-hydroxyhexyl)-L-α-glutamine]: the IC50 in test [1] (Table 2) was more than 67000 nM; in test [2] (Table 2), more than 17000 nM.

In the case of `COc1ccc(-c2ccc(C(=O)N[C@@H](CCC(=O)O)C(=O)NCc3cc(OC)c(OC)c(OC)c3)cc2)cc1OC` [Example 17F, N^2-[(3′,4′-dimethoxybiphenyl-4-yl)carbonyl]-N-(3,4,5-trimethoxybenzyl)-L-α-glutamine], the IC50 is approximately 8300 nM in test [1] (Table 2) and 1700 nM in test [2] (Table 2).

`O=C(O)CC[C@H](NC(=O)c1ccc(Oc2ccccc2)cc1)C(=O)NC12CC3CC(CC(C3)C1)C2` [Example 8ZZZZ, N^1-1-adamantyl-N^2-(4-phenoxybenzoyl)-L-α-glutamine]: the concentration for half-maximal inhibition (IC50) in test [1] (Table 2) was more than 22000 nM; in test [2] (Table 2), more than 17000 nM.

As for `O=C(O)CC[C@H](NC(=O)c1ccc(C#CC2CCC(O)CC2)cc1)C(=O)NCc1ccccc1` (stereo partly drawn) [Example 17QQ, N-benzyl-N^2-{4-[(4-hydroxycyclohexyl)ethynyl]benzoyl}-L-α-glutamine], the IC50 in test [1] (Table 2) was approximately 22000 nM; in test [2] (Table 2), more than 25000 nM.

In the case of `CC(C)(Cc1ccc(Cl)cc1)NC(=O)[C@H](CCC(=O)O)NC(=O)c1ccc(-c2c(F)cccc2F)cc1` [Example 8CCCCCCC, N-[2-(4-chlorophenyl)-1,1-dimethylethyl]-N^2-[(2′,6′-difluorobiphenyl-4-yl)carbonyl]-L-α-glutamine], the 50% inhibitory concentration (IC50) was 680 nM in test [1] (Table 3) and 50 nM in test [2] (Table 3).

Take `CC(C)(Cc1ccc(Cl)cc1)NC(=O)[C@H](CCC(=O)O)NC(=O)c1ccc(-c2ccc(Br)s2)cc1` [N^2-[4-(5-bromo-2-thienyl)benzoyl]-N-[2-(4-chlorophenyl)-1,1-dimethylethyl]-L-α-glutamine]: the IC50 in test [1] (Table 3) is 30 to 100 nM; in test [2] (Table 3) it was less than 30 nM. The Ki in test [1] (Table 3) is 69 nM; in test [2] (Table 3) it was 8.3 nM.

As to `CC(C)(Cc1ccccc1)NC(=O)[C@H](CCC(=O)O)NC(=O)c1ccc(-c2ccc(O)cc2)cc1` [Example 17LL, N-(1,1-dimethyl-2-phenylethyl)-N^2-[(4′-hydroxybiphenyl-4-yl)carbonyl]-L-α-glutamine], the IC50 in test [1] (Table 2) amounted to 1190 nM; in test [2] (Table 2) it was 87 nM.

Consider `CC(C)(Cc1ccccc1)NC(=O)[C@H](CCC(=O)O)NC(=O)c1ccc(-c2cccnc2)s1` [N-(1,1-dimethyl-2-phenylethyl)-N^2-[(5-pyridin-3-yl-2-thienyl)carbonyl]-L-α-glutamine], for which, in test [1] (Table 3), the IC50 stood at 7200 nM. The “Agg1 % at concentration” value in test [2] (Table 3, at 70 (nM)) was found to be 57% 70.

Consider `CC(C)(Cc1ccc(F)cc1)NC(=O)[C@H](CCC(=O)O)NC(=O)c1ccc(-c2cccc(F)c2)cc1` [N^2-[(3′-fluorobiphenyl-4-yl)carbonyl]-N-[2-(4-fluorophenyl)-1,1-dimethylethyl]-L-α-glutamine], for which, in test [1] (Table 3), the IC50 was determined as 77 nM and the Ki was 81 nM. In test [2] (Table 3), the IC50 is less than 30 nM and the Ki was determined as 4.5 nM.

As to `Cc1ccc(-c2ccc(C(=O)N[C@@H](CCC(=O)O)C(=O)NC(C)(C)Cc3ccccc3)cc2)cc1` [Example 17TT, N-(1,1-dimethyl-2-phenylethyl)-N^2-[(4′-methylbiphenyl-4-yl)carbonyl]-L-α-glutamine], the IC50 amounted to 173 nM in test [1] (Table 2) and 120 nM in test [2] (Table 2).

Take `COc1cccc(-c2ccc(C(=O)N[C@@H](CCC(=O)O)C(=O)NC(C)(C)Cc3ccc(F)cc3)cn2)c1` [N-[2-(4-fluorophenyl)-1,1-dimethylethyl]-N^2-{[6-(3-methoxyphenyl)pyridin-3-yl]carbonyl}-L-α-glutamine]: the IC50 is 5200 nM in test [1] (Table 3) and 140 nM in test [2] (Table 3).

In the case of `CC(C)(Cc1ccc(F)cc1)NC(=O)[C@H](CCC(=O)O)NC(=O)c1ccc(-c2cccnc2)s1` [Example 8ZZZZZZZZ, N-[2-(4-fluorophenyl)-1,1-dimethylethyl]-N^2-[(5-pyridin-3-yl-2-thienyl)carbonyl]-L-α-glutamine], the IC50 in test [1] (Table 3) was 9900 nM; in test [2] (Table 3) it was 20 to 70 nM.

Consider `COc1cc(COc2ccc(-c3ccc(C(=O)N[C@@H](CCC(=O)O)C(=O)NC(C)(C)Cc4ccc(F)cc4)cc3)cc2)cc(OC)c1` [Example 15N, N^2-({4′-[(3,5-dimethoxybenzyl)oxy]biphenyl-4-yl}carbonyl)-N-[2-(4-fluorophenyl)-1,1-dimethylethyl]-L-α-glutamine], for which the IC50 in test [1] (Table 3) came out at 103 nM; in test [2] (Table 3) it was 91 nM.

Turning to `CC(=O)c1ccc(-c2ccc(C(=O)N[C@@H](CCC(=O)O)C(=O)NC(C)(C)Cc3ccccc3)cc2)s1` [N^2-[4-(5-acetyl-2-thienyl)benzoyl]-N-(1,1-dimethyl-2-phenylethyl)-L-α-glutamine], the inhibition at 2.5 µM in test [1] (Table 3, at 2500 (nM), read-out: Agg 2 % at concentration) worked out at 5%. Moreover, the IC50 in test [2] (Table 3) was 300 to 900 nM.

On to `CCOc1cccc(-c2ccc(C(=O)N[C@@H](CCC(=O)O)C(=O)NC(C)(C)Cc3ccccc3)cc2)c1` [Example 17MM, N-(1,1-dimethyl-2-phenylethyl)-N^2-[(3′-ethoxybiphenyl-4-yl)carbonyl]-L-α-glutamine], for which the IC50 in test [1] (Table 2) stood at 2710 nM; in test [2] (Table 2), 46 nM.

For the compound `O=C(O)CC[C@H](NC(=O)c1ccc(-c2ccc3occc3c2)cc1)C(=O)NCC12CC3CC(CC(C3)C1)C2` [Example 17BB, N-(1-adamantylmethyl)-N^2-[4-(1-benzofuran-5-yl)benzoyl]-L-α-glutamine], the IC50 in test [1] (Table 2) was determined as 2900 nM; in test [2] (Table 2), 3600 nM.

As for `CC(C)(Cc1ccc(F)cc1)NC(=O)[C@H](CCC(=O)O)NC(=O)c1ccc(-c2ccc(F)c(Cl)c2)s1` [N^2-{[5-(3-chloro-4-fluorophenyl)-2-thienyl]carbonyl}-N-[2-(4-fluorophenyl)-1,1-dimethylethyl]-L-α-glutamine], the IC50 in test [1] (Table 3) was 98 nM; in test [2] (Table 3) it was less than 30 nM. Moreover, the Ki in test [1] (Table 3) is 45 nM; in test [2] (Table 3) it was 6.7 nM.

`CC(C)c1ccc(-c2ccc(C(=O)N[C@@H](CCC(=O)O)C(=O)NC(C)(C)Cc3ccccc3)cc2)cc1` [Example 17T, N-(1,1-dimethyl-2-phenylethyl)-N^2-[(4′-isopropylbiphenyl-4-yl)carbonyl]-L-α-glutamine]: the half-inhibitory concentration (IC50) amounted to 7200 nM in test [1] (Table 2) and 3200 nM in test [2] (Table 2).

For `COc1ccc(-c2ccc(C(=O)N[C@@H](CCC(=O)O)C(=O)NCc3cc(OC)c(OC)c(OC)c3)cc2)c(OC)c1` [Example 17G, N^2-[(2′,4′-dimethoxybiphenyl-4-yl)carbonyl]-N-(3,4,5-trimethoxybenzyl)-L-α-glutamine], the IC50 in test [1] (Table 2) was 3000 to 8000 nM; in test [2] (Table 2), 1600 nM.

As to `C[C@H](NC(=O)[C@H](CCC(=O)O)NC(=O)c1ccc(-c2ccccc2)cc1)c1ccccc1` [Example 8PPPPP, N^2-(biphenyl-4-ylcarbonyl)-N^1-[(1S)-1-phenylethyl]-L-α-glutamine], the IC50 in test [1] (Table 2) is 2970 nM; in test [2] (Table 2), 157 nM.

On to `O=C(O)CC[C@H](NC(=O)c1ccc(-c2ccccc2)cc1)C(=O)N[C@H](CO)Cc1ccccc1` [Example 8MMMMMM, N-[(1S)-1-benzyl-2-hydroxyethyl]-N^2-(biphenyl-4-ylcarbonyl)-L-α-glutamine], for which the IC50 in test [1] (Table 2) was determined as 5100 nM; in test [2] (Table 2), 550 nM.

As for `COc1cc(CNC(=O)[C@H](CCC(=O)O)NC(=O)c2ccc(-c3c(C)cc(C)cc3C)cc2)cc(OC)c1OC` [Example 17KK, N-(3,4,5-trimethoxybenzyl)-N^2-[(2′,4′,6′-trimethylbiphenyl-4-yl)carbonyl]-L-α-glutamine], the IC50 in test [1] (Table 2) was more than 67000 nM; in test [2] (Table 2) it was more than 25000 nM.
